Results: patent publication US20210094933A1, “RAPAFUCIN DERIVATIVE COMPOUNDS AND METHODS OF USE THEREOF” (The Johns Hopkins University, priority 2019, published 2021)
Values after ≈ are worked out from the molar mass of the structure shown. Read-outs that look alike come from different tables or passages of the source.

What was measured:
A549 = experiment: Cell proliferation assay (Prolif.), IC50 relative to DMSO control; type: cell-based; details: A549 cells; for Prolif, A549: IC50 class relative to DMSO control
Procedure: (§1) Cell Proliferation Assay (Prolif.) Guo et al. (2018) Nat. Chem. 11:254-63. Specific cell lines are indicated in each assay and cultured in complete growth media. Activity is scored according to the IC50 values relative to DMSO control. “Low” indicates an IC50 greater than 600 nM, “Medium” indicates an IC50 between 300 nM and 600 nM “High” indicates an IC50 less than 300 nM. “Rel.Uptake” refers to uptake activity characterization relative to a single concentration assay. “Low” indicates a response greater than 0.6 times the activity relative to DMSO, “Medium” indicates a response between 0.6 and 0.3 times the activity relative to DMSO, “High” indicates a response less than 0.3 times the activity relative to DMSO.

[1] = Cell proliferation assay, single concentration, response relative to DMSO; cell line indicated in each table; type: cell-based; details: A549 cells
Procedure: as §1

[2] = Nucleoside uptake assay, single concentration (Rel.Uptake), response relative to DMSO; cell line indicated in each table; type: cell-based; details: 293 T cells, nucleoside uptake at single concentration
Procedure: Nucleoside Uptake Assay (uptake). Nuceloside uptake assays were performed with using 3H-Thymidine as described in Guo et al. (2018) Nat. Chem, 11:254-63. Specific cell lines are indicated in each assay and cultured in complete growth media. Activity is scored according to the IC50 values relative to DMSO control. “Low” indicates an IC50 greater than 600 nM, “Medium” indicates an IC50 between 300 nM and 600 nM “High” indicates an IC50 less than 300 nM. “Rel.Uptake” refers to uptake activity characterization relative to a single concentration assay. “Low” indicates a response greater than 0.6 times the activity relative to DMSO, “Medium” indicates a response between 0.6 and 0.3 times the activity relative to DMSO, “High” indicates a response less than 0.3 times the activity relative to DMSO.

[3] = Aqueous solubility in PBS solution; type: physicochemical; details: aqueous buffer
Procedure: Compound 1593 is synthesized according to Scheme 42. The aqueous solubility of compound 1593 and its counterpart structure without carboxylic acid substitutent, compound 1594, is shown in Table 18. Without the carboxylic acid substitutent, compound 1594 merely has a solubility of about 0.1 mg/mL in PBS solution.

Sprague Dawley Rats = experiment: Rat Renal Ischemia-Reperfusion model; type: in vivo; details: compound given 30 min prior to right nephrectomy and left renal clamping, 24 hours of reperfusion
Procedure: Briefly, Sprague Dawley Rats were treated test compound 30 min prior to a right nephrectomy and with underwent clamping of the left renal clamping for 15 mins. After 24 hours of reperfusion, blood was collected to measure biomarkers for kidney damage and the kidney was removed for histology. […] SHAM indicates an animal group with right nephrectomy without ischemic injury. VE indicates vehicle. DPA indicates dipyridamole administered in a dosage of 10 mg/kg. Compound 1593 was administered at a high dosage (12 mg/kg) or a low dosage (4 mg/kg). Compound 1594 was administered at 4 mg/kg.

SMILES | Prolif, A549 (A549) | Rel. Prolif., A549 [1] | also measured
CCCC[C@H]1C(=O)N[C@@H](Cc2ccc3ccccc3c2)C(=O)N(C)[C@@H](COC(C)(C)C)C(=O)NCC(=O)N(C)CCC=CC(=O)OCC(C)(C)C(=O)C(=O)N2CCCC[C@H]2C(=O)O[C@H](CCc2cc(OC)c(OC)c(OC)c2)c2cccc(c2)OCC(=O)N1C [Compound 560] | medium | medium | 
CCCC[C@H]1C(=O)C[C@@H](Cc2ccc3ccccc3c2)C(=O)N(C)[C@@H](COC(C)(C)C)C(=O)NCC(=O)N(C)CCC=CC(=O)OCC(C)(C)C(=O)C(=O)N2CCCC[C@H]2C(=O)O[C@H](CCc2ccc(OC)c(OC)c2OC)c2cccc(c2)OCC(=O)N1C [Compound 561] | medium | medium | 
CCCC[C@H]1C(=O)N[C@@H](Cc2ccc3ccccc3c2)C(=O)N(C)[C@@H](COC(C)(C)C)C(=O)NCC(=O)N(C)CCC=CC(=O)OCC(C)(C)C(=O)C(=O)N2CCCC[C@H]2C(=O)O[C@H](CCc2cc(OC)c(OC)cc2OC)c2cccc(c2)OCC(=O)N1C [Compound 562] | medium | medium | 
CCCC[C@H]1C(=O)N[C@@H](Cc2ccc3ccccc3c2)C(=O)N(C)[C@@H](COC(C)(C)C)C(=O)NCC(=O)N(C)CCC=CC(=O)OCC(C)(C)C(=O)C(=O)N2CCCC[C@H]2C(=O)O[C@H](CCc2cc(OC)cc(OC)c2OC)c2cccc(c2)OCC(=O)N1C [Compound 563] | low | low | 
CCCC[C@H]1C(=O)N[C@@H](Cc2ccc3ccccc3c2)C(=O)N(C)[C@@H](COC(C)(C)C)C(=O)NCC(=O)N(C)CCC=CC(=O)OCC(C)(C)C(=O)C(=O)N2CCCC[C@H]2C(=O)O[C@H](CCc2c(OC)ccc(OC)c2OC)c2cccc(c2)OCC(=O)N1C [Compound 564] | low | low | 
CCCC[C@H]1C(=O)N[C@@H](Cc2ccc3ccccc3c2)C(=O)N(C)[C@@H](COC(C)(C)C)C(=O)NCC(=O)N(C)CCC=CC(=O)OCC(C)(C)C(=O)C(=O)N2CCCC[C@H]2C(=O)O[C@H](CCc2ccc(OC)c(OC)c2O)c2cccc(c2)OCC(=O)N1C [Compound 565] | medium | medium | 
CCCC[C@H]1C(=O)N[C@@H](Cc2ccc3ccccc3c2)C(=O)N(C)[C@@H](COC(C)(C)C)C(=O)NCC(=O)N(C)CCC=CC(=O)OCC(C)(C)C(=O)C(=O)N2CCCC[C@H]2C(=O)O[C@H](CCc2cc(O)c(OC)c(OC)c2)c2cccc(c2)OCC(=O)N1C [Compound 566] | medium | medium | 
CCCC[C@H]1C(=O)N[C@@H](Cc2ccc3ccccc3c2)C(=O)N(C)[C@@H](COC(C)(C)C)C(=O)NCC(=O)N(C)CCC=CC(=O)OCC(C)(C)C(=O)C(=O)N2CCCC[C@H]2C(=O)O[C@H](CCc2cc(OC)c(OC)cc2O)c2cccc(c2)OCC(=O)N1C [Compound 567] | medium | medium | 
CCCC[C@H]1C(=O)N[C@@H](Cc2ccc3ccccc3c2)C(=O)N(C)[C@@H](COC(C)(C)C)C(=O)NCC(=O)N(C)CCC=CC(=O)OCC(C)(C)C(=O)C(=O)N2CCCC[C@H]2C(=O)O[C@H](CCc2cc(F)c(OC)c(OC)c2)c2cccc(c2)OCC(=O)N1C [Compound 568] | medium | medium | 
CCCC[C@H]1C(=O)N[C@@H](Cc2ccc3ccccc3c2)C(=O)N(C)[C@@H](COC(C)(C)C)C(=O)NCC(=O)N(C)CCC=CC(=O)OCC(C)(C)C(=O)C(=O)N2CCCC[C@H]2C(=O)O[C@H](CCc2cc(OC)c(OC)cc2F)c2cccc(c2)OCC(=O)N1C [Compound 569] | medium | medium | 
CCCC[C@H]1C(=O)N[C@@H](Cc2ccc3ccccc3c2)C(=O)N(C)[C@@H](COC(C)(C)C)C(=O)NCC(=O)N(C)CCC=CC(=O)OCC(C)(C)C(=O)C(=O)N2CCCC[C@H]2C(=O)O[C@H](CCc2ccc(OC)c(OC)c2F)c2cccc(c2)OCC(=O)N1C [Compound 570] | medium | medium | 
CCCC[C@H]1C(=O)N[C@@H](Cc2ccc3ccccc3c2)C(=O)N(C)[C@@H](COC(C)(C)C)C(=O)NCC(=O)N(C)CCC=CC(=O)OCC(C)(C)C(=O)C(=O)N2CCN(C(=O)OCC3c4ccccc4-c4ccccc43)C[C@H]2C(=O)O[C@H](CCc2ccc(OC)c(OC)c2)c2cccc(c2)OCC(=O)N1C [Compound 571] | low | low | 
CCCC[C@H]1C(=O)N[C@@H](Cc2ccc3ccccc3c2)C(=O)N(C)[C@@H](COC(C)(C)C)C(=O)NCC(=O)N(C)CCC=CC(=O)OCC(C)(C)C(=O)C(=O)N2CCN(C)C[C@H]2C(=O)O[C@H](CCc2ccc(OC)c(OC)c2)c2cccc(c2)OCC(=O)N1C [Compound 572] | medium | medium | 
CCCC[C@H]1C(=O)N[C@@H](Cc2ccc3ccccc3c2)C(=O)N(C)[C@@H](COC(C)(C)C)C(=O)NCC(=O)N(C)CCC=CC(=O)OCC(C)(C)C(=O)C(=O)N2CCCC[C@H]2C(=O)O[C@H](CCc2ccc(OC)c(OC)c2)c2cc(ccc2F)OCC(=O)N1C [Compound 573] | low | low | 
CCCC[C@H]1C(=O)N[C@@H](Cc2ccc3ccccc3c2)C(=O)N(C)[C@@H](COC(C)(C)C)C(=O)NCC(=O)N(C)CCC=CC(=O)OCC(C)(C)C(=O)C(=O)N2CCCC[C@H]2C(=O)O[C@H](CCc2ccc(OC)c(OC)c2)c2cc(F)cc(c2)OCC(=O)N1C [Compound 574] | low | low | 
CCCC[C@H]1C(=O)N[C@@H](Cc2ccc3ccccc3c2)C(=O)N(C)[C@@H](COC(C)(C)C)C(=O)NCC(=O)N(C)CCC=CC(=O)OCC(C)(C)C(=O)C(=O)N2CCCC[C@H]2C(=O)O[C@H](CCc2ccc(OC)c(OC)c2)c2ccc(F)c(c2)OCC(=O)N1C [Compound 576] | medium | medium | 
CCCC[C@H]1C(=O)N[C@@H](Cc2ccc3ccccc3c2)C(=O)N(C)[C@@H](COC(C)(C)C)C(=O)NCC(=O)N(C)CCC=CC(=O)OCC(C)(C)C(=O)C(=O)N2CCCC[C@H]2C(=O)O[C@H](CCc2ccc(OC)c(OC)c2)c2cccc(c2F)OCC(=O)N1C [Compound 1563] | high |  | Rel. Uptake, 293 T [2]: high
CCCC[C@H]1C(=O)N[C@@H](Cc2ccc3ccccc3c2)C(=O)N(C)[C@@H](COC(C)(C)C)C(=O)NCC(=O)N(C)CCC=CC(=O)OCC(C)(C)C(=O)C(=O)N2CCCC[C@H]2C(=O)O[C@H](CCc2ccc(OC)c(O)c2)c2cccc(c2)OCC(=O)N1C [Compound 1564] | high |  | Rel. Uptake, 293 T [2]: high
CCCC[C@H]1C(=O)N[C@@H](Cc2ccc3ccccc3c2)C(=O)N(C)[C@@H](COC(C)(C)C)C(=O)NCC(=O)N(C)CCC=CC(=O)OCC(C)(C)C(=O)C(=O)N2CCCC[C@H]2C(=O)O[C@H](CCc2ccc(OC)c(OC)c2)c2cncc(c2)OCC(=O)N1C [Compound 1565] | low |  | Rel. Uptake, 293 T [2]: low
C=C1NCC(=O)N(C)CC/C=C\C(=O)OCC(C)(C)C(=O)C(=O)N2CCCC[C@H]2C(=O)O[C@H](CCc2ccc(OC)c(OC)c2)c2cccc(c2)NC(=O)CCC(=O)N(C)[C@@H](CC(C)C)C(=O)N[C@H](Cc2ccccc2)C(=O)N(C)[C@H]1[C@@H](C)CC [Compound 1592] |  |  | IC50 (A549; Homo sapiens): < 0.3 µM; Rel. Uptake, 293 T [2]: Low (“Low” indicates a response greater than 0.6 times the activity relative to DMSO)
COc1ccc(CC[C@H]2OC(=O)[C@@H]3CCCCN3C(=O)C(=O)C(C)(C)COC(=O)/C=C/CCN(C)C(=O)[C@H](CC(C)C)N(C)C(=O)[C@H]3CCCN3C(=O)[C@H](Cc3ccccc3)NC(=O)[C@H](c3ccccc3)NC(=O)CCC(=O)Nc3cccc2c3)cc1OC [Compound 1594] |  |  | solubility ([3]; PBS, read-out: Solubility): > 100 µg/mL; solubility ([3]; read-out: solubility in PBS solution): ~100 µg/mL (≈ 81.7 µM); Rel. Uptake, 293 T [2]: Low (“Low” indicates a response greater than 0.6 times the activity relative to DMSO); efficacy in Rat Renal Ischemia-Reperfusion model (Sprague Dawley Rats): efficacious
